{
  "source": "patent US10000791B2",
  "about": "“Measurement method for human pancreatic lipase activity” (ASAHI KASEI PHARMA CORPORATION, priority 2013, dated 2018)",
  "test_system": "human pancreatic lipase",
  "assay": "pH dependence of human pancreatic lipase activity in the presence of bile acids (diglyceride substrate, UV method)",
  "type": "biochemical",
  "experimental": "After weighing 1,2-dioleoyl glycerol (DODG) (manufactured by Nippon Fine Chemical Co., Ltd.) to attain a concentration of 9.32 mmol/L when dissolved, 1% polyoxyethylene (10) nonyl phenyl ether (NPE) (manufactured by Wako Pure Chemical Industries Ltd.) containing 1.66 mmol/L of MES (manufactured by Dojindo Laboratories) was added thereto to be dissolved therein by stirring at 37° C. for 2 hours, and the resultant was allowed to stand still in ice for 2 hours or more. The thus obtained solution was used as a substrate original liquid.\nThe above-described diglyceride original liquid was used for preparing a “substrate stock solution” having the following composition:\nA “first reaction solution (R-1)” having the following composition was prepared:\nA “second reaction solution (R-2)” having the following composition was prepared:\nA “second reaction solution (R-2) for sample blank” having the following composition was prepared:\nA mixture of the substrate stock solution and the R-1 in a proportion of 1:2 was used as a first reagent. The R-2 was directly used as a second reagent. As a sample, pooled serum or a control sample (a control containing a pancreatic lipase) was used. A proportion in amount among the sample, the first reagent and the second reagent was set as sample:first reagent:second reagent of 0.01 ml:0.18 ml:0.06 ml. The sample was added to the first reagent, the resultant mixture was heated at 37° C. for 5 minutes, the second reagent was added thereto, and a change rate of an absorbance at 340 nm based on reduced NADP was obtained at 37° C. from 3 minutes after the addition of the second reagent to 4 minutes after the addition, and then, the lipase activity was calculated by using a molecular extinction coefficient of 6300 L/mol·cm of the reduced NADP. Besides, as a sample blank, saline was used instead of a sample, an absorbance was measured by using the reagent for sample blank obtained by removing MGLPII from the second reagent, and a difference between the thus measured two values was defined as an enzyme activity value. For the measurement, Hitachi automatic analyzer Model H7170 or H7080 was used.\nAs a conjugated bile acid to be added to the R-1, sodium taurodeoxycholate (NaTDCA), sodium glycodeoxycholate (NaGDCA), sodium glycochenodeoxycholate (NaGCDCA), sodium taurochenodeoxycholate (NaTCDCA), sodium glycocholate (NaGCA), sodium taurocholate (NaTCA) and sodium tauroursodeoxycholate (NaTUDCA) all in a concentration of 40 mmol/L were selected, the R-1 was adjusted, by using BES (manufactured by Dojindo Laboratories) respectively to pH 6.8, 7.0, 7.2, 7.4, 7.8, and 8.0, and the human pancreatic lipase activity was measured by using these. The pH of the R-2 was adjusted to be equal to that of the R-1.\nIt is noted that the concentration of each non-conjugated bile acid was set to be 24 mmol/L in the R-1. Besides, BES was used for adjusting pH to 7.2, 7.6, 7.8 and 8.0, and Bicine was used for adjusting pH to 8.2 and 8.5.\nSimilarly to Example 1, a mixture of the substrate stock solution and the R-1 in a proportion of 1:2 was used as a first reagent. Except for this, the measurement was performed in the same manner as in Example 1.\nBesides, NaTCA was also combined with a conjugated bile acid, NaTDCA, to examine the pH for giving a maximum value of the human pancreatic lipase activity (the apparent optimum pH). It is noted that a BES buffer was used for adjusting pH to 6.9, 7.2 and 7.7, and a Bicine buffer was used for adjusting pH to 7.95 and 8.2. In each of the combinations of NaGCA/NaDCA, NaTCA/NaDCA, NaTUDCA/NaDCA and NaTCA/NaTDCA, the concentration of each bile acid was set to 20 mmol/L in the R-1. With respect to the combination of NaTCA and NaTDCA, a concentration of 40 mmol/L of NaTDCA was used as a control.\nThe compositions of the reagents and the measurement operation were the same as those of Example 2.",
  "data": [
    {"smiles": "C[C@H](CCC(=O)NCCS(=O)(=O)[O-])[C@H]1CC[C@H]2[C@@H]3CC[C@@H]4C[C@H](O)CC[C@]4(C)[C@H]3C[C@H](O)[C@]12C.[Na+]", "note": "[NaTDCA, sodium taurodeoxycholate]", "values": [
      {"measurement": "optimum pH", "setting": "NaTDCA 40 mmol/L control of Example 2", "result": "about 7.1"},
      {"measurement": "pH for giving a maximum value of the human pancreatic lipase activity (apparent optimum pH)", "setting": "pooled serum, conjugated bile acid singly, 40 mmol/L in R-1, BES pH 6.8-8.0", "result": "about 7"}
    ]}
  ]
}
